pKi: −log10 of the molar value.
How the values were obtained:
[1] = target: Vesicular acetylcholine transporter (Torpedo); assay: Binding to vesicular acetylcholine transporter of torpedo synaptic vesicles
[2] = target: Sigma non-opioid intracellular receptor 1 (Cavia porcellus) (UniProt Q60492); assay: Sigma-1 binding assay was done in guinea pig membranes by labeling the binding site with [3H](+)-pentazocine
[3] = Sigma-1 binding assay was done in guinea pig membranes by labeling the binding site with [3H](+)-pentazocine.

Sigma non-opioid intracellular receptor 1 (Cavia porcellus), sequence (Q60492 whole entry, looked up): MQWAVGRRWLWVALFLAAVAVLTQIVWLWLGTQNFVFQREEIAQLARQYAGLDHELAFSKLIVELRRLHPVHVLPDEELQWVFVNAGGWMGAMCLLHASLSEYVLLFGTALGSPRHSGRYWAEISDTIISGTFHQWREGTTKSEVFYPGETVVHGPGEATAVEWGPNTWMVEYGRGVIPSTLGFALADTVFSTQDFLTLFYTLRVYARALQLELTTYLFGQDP

| Compound | pKi [1] | pKi [2] | pKi [3] |
| --- | --- | --- | --- |
| O[C@@H](CN1CCC2(CCc3ccccc32)CC1)c1cccc(Br)c1 [(1R)-1-(3-bromophenyl)-2-(2,3-dihydro-1'H-spiro[indene-1,4'-piperidin]-1'-yl)ethanol] | 6.22 | 6.97 | – |
| O=C(CN1C2CCC1CC(c1ccccc1)C2)c1ccc(F)cc1 (stereo not given) [1-(4-Fluoro-phenyl)-2-(3-phenyl-8-aza-bicyclo[3.2.1]oct-8-yl)-ethanone] | 5.47 | 6.55 | – |
| O[C@H]1CCN(Cc2cccc(I)c2)C[C@@H]1N1C2CCC1CC(c1ccccc1)C2 (stereo partly drawn) [(3S,4S)-1-(3-Iodo-benzyl)-3-(3-phenyl-8-aza-bicyclo[3.2.1]oct-8-yl)-piperidin-4-ol] | – | 6.71 | – |
| CN1CC2(CCN(C[C@H](O)Cc3ccc(Br)cc3)CC2)c2ccccc21 [(2R)-1-(4-bromophenyl)-3-{1-methyl-1,2-dihydrospiro[indole-3,4'-piperidine]-1'-yl}propan-2-ol] | 6.38 | 6.72 | – |
| O[C@@H]1Cc2ccccc2C[C@H]1N1CCC2(CCc3ccccc32)CC1 [3-spiro[2,3-dihydro-1H-indene-1,4'-(hexahydropyridine)]-1-yl-(2R,3R)-1,2,3,4-tetrahydro-2-naphthalenol] | 9.44 | – | – |
| CN1CC2(CCN([C@@H]3CN(Cc4cccc(I)c4)CC[C@H]3O)CC2)c2ccccc21 [1-(3-Iodobenzyl)-3-[1-methylspiro[2,3-dihydro-1H-indole-3,4'-(hexahydropyridine)]-1-yl]-(3R,4R)-hexahydro-4-pyridinol] | 7.77 | 6.91 | – |
| O=C(CCCN1C2CCC1CC(c1ccccc1)C2)c1ccc(F)cc1 (stereo not given) | – | 7.47 | – |
| O=C(CCCN1CCC2(CCc3ccccc32)CC1)c1ccc(F)cc1 [1-(4-fluorophenyl)-4-spiro[2,3-dihydro-1H-indene-1,4'-(hexahydropyridine)]-1-yl-1-butanone] | – | 8.74 | – |
| OC(CN1CCC(c2ccccc2)CC1)c1ccc(Br)cc1 (stereo not given) [1-(4-Bromo-phenyl)-2-(4-phenyl-piperidin-1-yl)-ethanol] | 7.52 | – | – |
| OC(Cc1ccc(Br)cc1)CN1C2CCC1CC(c1ccccc1)C2 (stereo not given) [1-(4-Bromo-phenyl)-3-(3-phenyl-8-aza-bicyclo[3.2.1]oct-8-yl)-propan-2-ol] | – | 7.51 | – |
| O[C@H]1CCCC[C@@H]1N1C2CCC1CC(c1ccccc1)C2 (stereo partly drawn) [(1S,2S)-2-(3-Phenyl-8-aza-bicyclo[3.2.1]oct-8-yl)-cyclohexanol] | – | 6.42 | – |
| CN1CC2(CCN([C@@H]3CCCC[C@H]3O)CC2)c2ccccc21 [(1R,2R)-2-(1-methyl-1,2-dihydro-1'H-spiro[indole-3,4'-piperidin]-1'-yl)cyclohexanol] | 7.13 | 6.54 | – |
| OC(CN1C2CCC1CC(c1ccccc1)C2)c1cccc(Br)c1 (stereo not given) [1-(3-Bromo-phenyl)-2-(3-phenyl-8-aza-bicyclo[3.2.1]oct-8-yl)-ethanol] | – | 6.93 | – |
| O[C@H](Cc1ccc(Br)cc1)CN1CCC2(CCc3ccccc32)CC1 [(2R)-1-(4-bromophenyl)-3-{2,3-dihydrospiro[indene-1,4'-piperidine]-1'-yl}propan-2-ol] | 7.07 | – | – |
| CN1CC2(CCN(C[C@H](O)c3cccc(Br)c3)CC2)c2ccccc21 [(1R)-1-(3-bromophenyl)-2-(1-methyl-1,2-dihydro-1'H-spiro[indole-3,4'-piperidin]-1'-yl)ethanol] | 6.74 | 6.29 | – |
| O[C@@H]1CCN(Cc2cccc(I)c2)C[C@H]1N1CCC2(CCc3ccccc32)CC1 [1-(3-iodobenzyl)-3-spiro[2,3-dihydro-1H-indene-1,4'-(hexahydropyridine)]-1-yl-(3R,4R)-hexahydro-4-pyridinol] | – | 6.55 | – |
| OC(CN1C2CCC1CC(c1ccccc1)C2)c1ccccc1Br (stereo not given) [1-(2-Bromo-phenyl)-2-(3-phenyl-8-aza-bicyclo[3.2.1]oct-8-yl)-ethanol] | 6.89 | – | 7.02 |
| OC(CN1C2CCC1CC(c1ccccc1)C2)c1ccc(Cl)c(Cl)c1 (stereo not given) [1-(3,4-Dichloro-phenyl)-2-(3-phenyl-8-aza-bicyclo[3.2.1]oct-8-yl)-ethanol] | 7.22 | 6.60 | – |
| OC(CN1C2CCC1CC(c1ccccc1)C2)c1ccc(Br)cc1 (stereo not given) [1-(4-Bromo-phenyl)-2-(3-phenyl-8-aza-bicyclo[3.2.1]oct-8-yl)-ethanol] | 6.84 | 7.76 | – |
| OC(CN1C2CCC1CC(c1ccccc1)C2)c1c(Cl)cccc1Cl (stereo not given) [1-(2,6-Dichloro-phenyl)-2-(3-phenyl-8-aza-bicyclo[3.2.1]oct-8-yl)-ethanol] | – | 6.52 | – |
| O[C@H]1Cc2ccccc2C[C@@H]1N1C2CCC1CC(c1ccccc1)C2 (stereo partly drawn) [(2S,3S)-3-(3-Phenyl-8-aza-bicyclo[3.2.1]oct-8-yl)-1,2,3,4-tetrahydro-naphthalen-2-ol] | 8.07 | 6.76 | – |
| OC(CN1C2CCC1CC(c1ccccc1)C2)c1ccccc1 (stereo not given) [1-Phenyl-2-(3-phenyl-8-aza-bicyclo[3.2.1]oct-8-yl)-ethanol] | 6.32 | – | – |
| O[C@@H]1CCCC[C@H]1N1CCC2(CCc3ccccc32)CC1 [(1R,2R)-2-(2,3-dihydro-1'H-spiro[indene-1,4'-piperidin]-1'-yl)cyclohexanol] | 8.12 | 7.68 | – |
| CN1CC2(CCN(CCCC(=O)c3ccc(F)cc3)CC2)c2ccccc21 [1-(4-fluorophenyl)-4-[1-methylspiro[2,3-dihydro-1H-indole-3,4'-(hexahydropyridine)]-1-yl]-1-butanone] | – | 6.96 | – |
| O[C@@H]1CCN(Cc2ccc(F)cc2)C[C@H]1N1CCC2(CCc3ccccc32)CC1 [1-(4-fluorobenzyl)-3-spiro[2,3-dihydro-1H-indene-1,4'-(hexahydropyridine)]-1-yl-(3R,4R)-hexahydro-4-pyridinol] | 9.44 | 7.60 | – |
| O[C@H]1CCN(Cc2ccc(F)cc2)C[C@@H]1N1C2CCC1CC(c1ccccc1)C2 (stereo partly drawn) [(3S,4S)-1-(4-Fluoro-benzyl)-3-(3-phenyl-8-aza-bicyclo[3.2.1]oct-8-yl)-piperidin-4-ol] | 6.49 | 6.62 | – |
| OC(CCCN1C2CCC1CC(c1ccccc1)C2)c1ccc(F)cc1 (stereo not given) [1-(4-Fluoro-phenyl)-4-(3-phenyl-8-aza-bicyclo[3.2.1]oct-8-yl)-butan-1-ol] | 6.42 | – | – |

From BindingDB's records for doi:10.1021/jm970326r (University of Minnesota, 1998)
